In article PMC7443514 (Bioorganic & medicinal chemistry, 2020):
Read-outs that look alike come from different tables or passages of the source.

Experiments:
[1] = biological target: T1, SARM1 TIR domain (bacterial lysate) (Homo sapiens, UniProt Q6SZW1); assay type: biochemical; details: ENAD 0-400 μM; for Inhibition Mechanism: bacterially expressed TIR domain lysate
T1 sequence (Q6SZW1 561-724): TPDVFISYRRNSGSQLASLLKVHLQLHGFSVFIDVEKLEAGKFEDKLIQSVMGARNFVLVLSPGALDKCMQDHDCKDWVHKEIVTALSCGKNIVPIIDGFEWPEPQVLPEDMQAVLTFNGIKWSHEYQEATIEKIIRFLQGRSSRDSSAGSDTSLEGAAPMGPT

SARM1 = details: substrate analog; cited from earlier work
[2] = biological target: T1, SARM1 TIR domain (bacterial lysate); details: cited from earlier work
[3] = biological target: T2, purified SARM1 TIR domain (Homo sapiens, UniProt Q6SZW1); test: Dose response, ENAD assay, purified TIR domain; assay type: biochemical; details: purified TIR domain (20 μM), 500 μM ENAD
T2 sequence (Q6SZW1 561-724): T1 sequence (Q6SZW1 561-724)

SMILES: C[C@H]1c2cccc(O)c2C(=O)C2=C(O)[C@]3(O)C(=O)C(C(N)=O)=C(O)[C@@H](N(C)C)[C@@H]3[C@@H](O)[C@@H]21.Cl [Doxycycline Hydrochloride, Doxycycline hydrochloride]
- Inhibition Mechanism [1]: Noncompetitive

SMILES: NC(=O)c1ccc[n+]([C@@H]2O[C@H](COP(=O)([O-])OP(=O)(O)OC[C@H]3O[C@@H](n4cnc5c4ncn4ccnc54)[C@H](O)[C@@H]3O)[C@@H](O)[C@H]2O)c1 [ENAD, Nicotinamide 1,N^6-ethenoadenine dinucleotide]
- Km (SARM1): 35 ± 15 µM
- kcat (SARM1): 0.05 ± 0.04 s⁻¹

SMILES: NC(=O)N/N=C/c1ccc([N+](=O)[O-])o1 [Nitroflurazone]
- Inhibition Mechanism [1]: Noncompetitive

SMILES: Cl.Nc1ccc(/N=N/c2ccccc2)c(N)n1 [Phenazopyridine Hydrochloride, Phenazopyridine hydrochloride]
- Inhibition Mechanism [1]: Competitive

SMILES: [O-][n+]1ccccc1[S-].[O-][n+]1ccccc1[S-].[Zn+2] [Pyrithone Zinc, Pyrithone zinc]
- Inhibition Mechanism [1]: Noncompetitive

SMILES: [Cl-].[Cl-].[Zn+2] [Zinc Chloride, Zinc chloride]
- Inhibition Mechanism [2]: noncompetitive
- Ki [2]: 3.3 ± 0.1 µM
- IC50 [3]: 10 ± 1 µM
- Ki ([1]; bacterially expressed TIR domain (300 nM) lysate): 3.3 ± 0.1 µM
- Inhibition Mechanism [1]: Noncompetitive
